± gives the expanded uncertainty stated by the source.
Assay: refractive index (Na D-line) (dimensionless); xn = mol fraction of the nth substance listed
Settings: 101 kPa, Liquid, Standard Abbe refractometry

NCCNCCO [N-(2-aminoethyl)ethanolamine] + O
refractive index (298.15 K, x1 = 0.05): 1.37012 ± 0.00044 | refractive index (298.15 K, x1 = 0.07): 1.38204 ± 0.00039 | refractive index (298.15 K, x1 = 0.1): 1.39796 ± 0.00044 | refractive index (298.15 K, x1 = 0.2): 1.43314 ± 0.00085 | refractive index (298.15 K, x1 = 0.3): 1.45253 ± 0.00041 | refractive index (298.15 K, x1 = 0.4): 1.46321 ± 0.00034 | refractive index (298.15 K, x1 = 0.5): 1.4703 ± 0.00038 | refractive index (298.15 K, x1 = 0.5996): 1.47498 ± 0.00043 | refractive index (298.15 K, x1 = 0.7011): 1.47851 ± 0.00046 | refractive index (298.15 K, x1 = 0.8002): 1.48101 ± 0.00048 | refractive index (298.15 K, x1 = 0.8979): 1.48289 ± 0.0005 | refractive index (298.15 K, x1 = 1): 1.48454 ± 0.00052 | refractive index (303.15 K, x1 = 0.05): 1.36931 ± 0.00045 | refractive index (303.15 K, x1 = 0.07): 1.3811 ± 0.00043 | refractive index (303.15 K, x1 = 0.1): 1.39682 ± 0.00039 | refractive index (303.15 K, x1 = 0.2): 1.4318 ± 0.00037 | refractive index (303.15 K, x1 = 0.3): 1.45087 ± 0.00042 | refractive index (303.15 K, x1 = 0.4): 1.46158 ± 0.00045 | refractive index (303.15 K, x1 = 0.5): 1.46857 ± 0.00047 | refractive index (303.15 K, x1 = 0.5996): 1.47321 ± 0.00049 | refractive index (303.15 K, x1 = 0.7011): 1.47671 ± 0.00049 | refractive index (303.15 K, x1 = 0.8002): 1.47918 ± 0.0005 | refractive index (303.15 K, x1 = 0.8979): 1.48103 ± 0.00051 | refractive index (303.15 K, x1 = 1): 1.48269 ± 0.00053 | refractive index (313.15 K, x1 = 0.05): 1.36749 ± 0.00046 | refractive index (313.15 K, x1 = 0.07): 1.37909 ± 0.00043 | refractive index (313.15 K, x1 = 0.1): 1.39453 ± 0.00042 | refractive index (313.15 K, x1 = 0.2): 1.4289 ± 0.00045 | refractive index (313.15 K, x1 = 0.3): 1.44762 ± 0.00047 | refractive index (313.15 K, x1 = 0.4): 1.45811 ± 0.00048 | refractive index (313.15 K, x1 = 0.5): 1.46502 ± 0.00049 | refractive index (313.15 K, x1 = 0.5996): 1.46961 ± 0.00049 | refractive index (313.15 K, x1 = 0.7011): 1.47308 ± 0.0005 | refractive index (313.15 K, x1 = 0.8002): 1.47552 ± 0.00051 | refractive index (313.15 K, x1 = 0.8979): 1.47734 ± 0.00052 | refractive index (313.15 K, x1 = 1): 1.47884 ± 0.00053 | refractive index (323.15 K, x1 = 0.05): 1.36542 ± 0.00046 | refractive index (323.15 K, x1 = 0.07): 1.37696 ± 0.00043 | refractive index (323.15 K, x1 = 0.1): 1.39214 ± 0.00042 | refractive index (323.15 K, x1 = 0.2): 1.42583 ± 0.00046 | refractive index (323.15 K, x1 = 0.3): 1.44425 ± 0.00047 | refractive index (323.15 K, x1 = 0.4): 1.45463 ± 0.00048 | refractive index (323.15 K, x1 = 0.5): 1.46146 ± 0.00049 | refractive index (323.15 K, x1 = 0.5996): 1.46604 ± 0.0005 | refractive index (323.15 K, x1 = 0.7011): 1.46938 ± 0.00051 | refractive index (323.15 K, x1 = 0.8002): 1.47177 ± 0.00051 | refractive index (323.15 K, x1 = 0.8979): 1.47359 ± 0.00052 | refractive index (323.15 K, x1 = 1): 1.47516 ± 0.00053 | refractive index (333.15 K, x1 = 0.05): 1.36367 ± 0.00052 | refractive index (333.15 K, x1 = 0.07): 1.37507 ± 0.00045 | refractive index (333.15 K, x1 = 0.1): 1.38992 ± 0.00057 | refractive index (333.15 K, x1 = 0.2): 1.42264 ± 0.00087 | refractive index (333.15 K, x1 = 0.3): 1.44087 ± 0.00069 | refractive index (333.15 K, x1 = 0.4): 1.45107 ± 0.00058 | refractive index (333.15 K, x1 = 0.5): 1.45777 ± 0.00055 | refractive index (333.15 K, x1 = 0.5996): 1.46223 ± 0.00054 | refractive index (333.15 K, x1 = 0.7011): 1.4656 ± 0.00053 | refractive index (333.15 K, x1 = 0.8002): 1.46805 ± 0.00053 | refractive index (333.15 K, x1 = 0.8979): 1.46977 ± 0.00053 | refractive index (333.15 K, x1 = 1): 1.47128 ± 0.00054
